Data as given in patent US11548860B2, “Pharmacophores, compounds and methods having application in the treatment of cancer through inhibition of CYP17A1 and CYP19A1” (MANGOSUTHU UNIVERSITY OF TECHNOLOGY, priority 2015, dated 2023).

Key:
CYP17A1 [1] = settings: actual (literature) activity of training/test set compounds, cited from earlier work; for IC50: unit nM
Solubility in DMSO = format: physicochemical
CYP17A1 [2] = biological target: CYP17A1 (Homo sapiens (Human), UniProt P05093); test: CYP17A1 inhibition, CYP17A1 bactosomes, progesterone substrate, LC-MS/MS; format: biochemical; settings: Table 2
CYP17A1 (Homo sapiens (Human), UniProt P05093), sequence (P05093 whole entry, canonical isoform): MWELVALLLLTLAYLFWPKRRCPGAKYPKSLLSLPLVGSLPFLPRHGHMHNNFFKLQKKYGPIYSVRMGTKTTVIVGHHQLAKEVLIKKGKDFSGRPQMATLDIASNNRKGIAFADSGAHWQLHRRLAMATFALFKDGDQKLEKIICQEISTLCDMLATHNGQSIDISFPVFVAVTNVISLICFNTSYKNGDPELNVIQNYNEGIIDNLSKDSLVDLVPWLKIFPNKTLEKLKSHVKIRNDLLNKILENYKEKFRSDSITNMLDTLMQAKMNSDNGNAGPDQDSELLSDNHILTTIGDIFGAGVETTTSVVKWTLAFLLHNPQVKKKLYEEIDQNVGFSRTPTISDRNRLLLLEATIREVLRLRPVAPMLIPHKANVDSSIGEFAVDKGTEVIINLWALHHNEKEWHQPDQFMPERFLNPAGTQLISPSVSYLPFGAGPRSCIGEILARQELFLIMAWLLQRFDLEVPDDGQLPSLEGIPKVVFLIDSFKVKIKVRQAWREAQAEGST
Procedure: CYP17A1 inhibition was measured using 20 pmol/ml CYP17A1 bactosomes (Cypex, Dundee, UK) and 0.1 μM progesterone as a substrate and 1 mM NADPH in 50 mM potassium phosphate buffer pH 7.4 containing 5 mM magnesium chloride. Inhibitors were dissolved in DMSO and serially diluted in seven ½ log steps, final concentrations ranging from 50 μA to 50 nM. Reaction volume was 100 μl and final DMSO concentration was 1% (v/v). Reactions were started by the addition of NADPH and incubated at 37° C. for 20 minutes with shaking at 1800 rpm on a Bioshake IQ (Q-Instruments, Jena, Germany). Reactions were terminated by the addition of 200 μl methanol containing 1 μM tolbutamide as an internal standard.

[3] = test system: CYP1A2, CYP2C9, CYP2C19, CYP2D6, and CYP3A4; test: Summary of inhibition of metabolic CYP450 isoforms (5 CYP panel); format: in vitro ADME, human; settings: Table 2
[4] = Toxicity studies on the molecules in Table 2
CYP19A1 = CYP19A1 (Homo sapiens (Human), UniProt P11511); test: CYP19A1 inhibition, CYP19/MFC High Throughput Inhibitor Screen Kit, fluorescence; format: biochemical; settings: Table 2
CYP19A1, sequence (P11511 whole entry): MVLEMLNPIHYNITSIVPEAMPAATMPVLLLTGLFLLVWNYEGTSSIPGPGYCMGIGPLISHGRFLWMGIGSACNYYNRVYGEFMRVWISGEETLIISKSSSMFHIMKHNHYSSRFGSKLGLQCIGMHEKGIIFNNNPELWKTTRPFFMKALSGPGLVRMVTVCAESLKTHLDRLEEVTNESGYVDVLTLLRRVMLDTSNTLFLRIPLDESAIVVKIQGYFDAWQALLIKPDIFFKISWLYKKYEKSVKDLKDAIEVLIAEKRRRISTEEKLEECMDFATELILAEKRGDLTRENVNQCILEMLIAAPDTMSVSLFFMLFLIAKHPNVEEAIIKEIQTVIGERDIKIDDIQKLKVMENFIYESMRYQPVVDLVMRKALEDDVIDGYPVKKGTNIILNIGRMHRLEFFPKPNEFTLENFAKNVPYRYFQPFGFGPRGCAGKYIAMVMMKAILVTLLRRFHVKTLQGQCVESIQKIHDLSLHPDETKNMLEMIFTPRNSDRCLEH
Procedure: Test compounds and control inhibitors were prepared as stocks in either Acetonitrile or DMSO from the solid compound. Compounds were serially diluted in ½ log steps in the same solvent. CYP19A1 inhibition experiments were performed using the CYP19/MFC High Throughput Inhibitor Screen Kit (Corning). Test compounds were tested in seven concentrations: […] CYP19A1 reactions were performed in black 96 well-plates (Greiner) according to the manufacturer's instructions. […] Final organic solvent concentrations were either 4% (v/v) acetonitrile or 0.5% (v/v) Dimethyl sulfoxide. The plates were covered with self-adhesive film lids and incubated for 10 minutes at 37° C. Reactions were terminated by the addition of 75 μl Stop Solution (100 mM Tris base in acetonitrile: MilliQ water (80:20). […] The CYP activities for each test compound/positive control inhibitor at each concentration were converted to % of control activity (CA). The LC-MS/MS peak responses (CYP metabolite peak area/internal standard peak area) for each test compound or positive control inhibitor were used and the response for each sample was expressed as a percentage of an uninhibited control (DMSO incubation).

Compound	pIC50 (CYP17A1 [1])	IC50 (CYP17A1 [1]) [nM]	other results
NC(=O)c1ccc2cc(C3(O)CCn4cncc43)ccc2c1 (racemic) [3b [11]]	7.540	29	–
CNC(=O)c1ccc2cc(C3CCn4cncc43)ccc2c1 (racemic) [3d [11]]	7.890	13	–
c1ccc(-c2ccc3c(c2)CCC3n2ccnc2)cc1 (racemic) [5ay [7]]	6.620	240	–
O=C(NC1CC1)c1ccc2cc(C3(O)CCn4cncc43)ccc2c1 (racemic) [5bx [7]]	6.600	250	–
CC(C)C(O)(c1ccc(-c2ccccc2)cc1)c1c[nH]cn1 (racemic) [7 [12]]	7.480	33	–
COc1ccc(-c2ccc(C(O)(c3c[nH]cn3)C(C)C)cc2)cc1 (racemic) [8 [12]]	7.270	54	–
CC(c1ccc(-c2ccsc2)cc1)n1ccnc1 (racemic) [12 [9]]	6.050	876	–
CC(C)C(O)(c1cccc(-c2ccc(F)cc2)c1)c1c[nH]cn1 (racemic) [13 [12]]	7.720	19	–
CC(C)C(O)(c1ccc(-c2ccc(F)cc2)cc1)c1c[nH]cn1 (racemic) [15 [12]]	7.570	27	–
COc1ccc(-c2ccc3c(c2)CCCC3(O)c2ccncc2)cc1F (racemic) [16 [9]]	5.480	3340	–
CC(C)C(O)(c1ccc(-c2ccc(Cl)cc2)cc1)c1c[nH]cn1 (racemic) [16 [12]]	7.550	28	–
CCNC(=O)c1ccc2cc(C3(O)CCn4cncc43)ccc2c1 (racemic) [25 [2]]	6.730	186	–
CC(=O)Nc1cccc(-c2ccc(C(C)(O)c3c[nH]cn3)cc2)c1 (racemic) [32 [12]]	7.420	38	–
CCC(O)(c1ccc(-c2cccc(NC(C)=O)c2)cc1)c1c[nH]cn1 (racemic) [33 [12]]	7.400	40	–
CC(=O)Nc1cccc(-c2ccc(C(O)(c3c[nH]cn3)C3CC3)cc2)c1 (racemic) [34 [12]]	7.350	45	–
CNC(=O)c1ccc2cc(C(O)(c3cnc[nH]3)C(C)C)ccc2c1 (centres unmarked) [1 [11]]	7.800	16	–
Brc1ccc(Cc2ccncc2)cc1 [3g [11]]	6.400	400	–
Oc1cccc(-c2ccc(Cc3ccncc3)cc2)c1 [3i [11]]	7.060	88	–
CC(c1ccc(-c2ccc(F)cc2)cc1)n1ccnc1 (centres unmarked) [4 [9], 4-fluoro-4-[1-(1H-imidazolyl)ethyl]biphenyl]	6.610	248	–
Oc1ccc(-c2ccc(Cc3ccncc3)cc2)cc1F [5ax [7]]	6.770	170	–
Oc1ccc(-c2ccc(Cc3ccncc3)cc2)cc1O [9 [9]]	7.280	52	–

Compound	pIC50 (CYP17A1 [1])	IC50 (CYP17A1 [1]) [nM]	other results
COc1ccc(-c2ccc(Cc3ccncc3)cc2)cc1OC [9a [9]]	7.280	52	–
CC(C)=C(c1ccncc1)c1ccc(-c2cccc(O)c2)cc1 [13 [2]]	7.250	56	–
COc1ccc2cc(-c3ccc(Cc4ccncc4)cc3)ccc2c1 [13 [9]]	5.750	1790	–
CC(C)C(O)(c1cccc(-c2ccc(Cl)cc2)c1)c1c[nH]cn1 (centres unmarked) [14 [12]]	7.310	49	–
CC(C)=C(c1ccncc1)c1ccc(-c2ccc(O)c(F)c2)cc1 [15 [2]]	7.120	75	–
Cl.Fc1ccc(-c2ccc3c(c2)CCC3c2cccnc2)cc1 (centres unmarked) [15 [13]]	4.700	20000	–
CC(C)=C(c1ccncc1)c1ccc(-c2ccc(O)c(O)c2)cc1 [16 [2]]	7.430	37	–
CC(=O)Nc1cccc(-c2ccc(C(O)(c3c[nH]cn3)C(C)C)cc2)c1 (centres unmarked) [17 [12]]	7.620	24	–
Br.Oc1ccc(-c2ccc3c(c2)CCCC3c2ccncc2)cc1F (centres unmarked) [20 [13]]	7.190	64	–
CC(C)=C(c1ccncc1)c1ccc(-c2ccc(N)c(N)c2)cc1 [22 [2]]	7.120	75	–
CNC(=O)c1cccc(-c2ccc(C(O)(c3c[nH]cn3)C(C)C)cc2)c1 (centres unmarked) [22 [12]]	7.360	44	–
CNC(=O)Nc1cccc(-c2ccc(C(O)(c3c[nH]cn3)C(C)C)cc2)c1 (centres unmarked) [24 [12]]	7.680	21	–
CC(=O)Nc1cccc(-c2ccc(C(O)(c3c[nH]cn3)C(C)C)cc2)n1 (centres unmarked) [26 [12]]	7.440	36	–
Oc1ccc(-c2ccc(Cc3ccncc3)cc2)cc1 [30 [10]]	6.630	236	–
CCc1ccc(NC(=O)c2cc(C(=O)c3cc(OC)ccc3O)coc2=N)cc1 [Compound 1, N-(4-ethylphenyl)-5-(2-hydroxy-5-methoxybenzoyl)-2-imino-2H-pyran-3-carboxamide]	–	–	Soluble in DMSO (Solubility in DMSO): Yes; inhibitory potency of CYP17A1, level in words (CYP17A1 [2]): micromolar levels; inhibition of various CYP450 isoforms (drug-drug interaction) [3]: inhibit various CYP450 isoforms; safety profile [4]: reasonably good safety profiles
O=C(CSc1nnc(-c2c[nH]c3ccccc23)n1Cc1ccco1)NCc1ccccc1Cl [Compound 2, N-[(2-chlorophenyl)methyl]-2-({4-[(furan-2-yl)methyl]-5-(1H-indol-3-yl)-4H-1,2,4-triazol-3-yl}sulfanyl)acetamide]	–	–	Soluble in DMSO (Solubility in DMSO): Yes; inhibitory potency of CYP17A1, level in words (CYP17A1 [2]): micromolar levels; inhibition of various CYP450 isoforms (drug-drug interaction) [3]: inhibit various CYP450 isoforms; safety profile [4]: reasonably good safety profiles
COC(C)C(=O)Nc1cccc(NC(C(N)=O)c2ccccc2)c1 (centres unmarked) [Compound 5, N-(3-{[carbamoyl(phenyl)methyl]amino}phenyl)-2-methoxypropanamide]	–	–	Soluble in DMSO (Solubility in DMSO): Yes; safety profile [4]: excellent safety profiles
O=C1COc2cc(NCc3cccc(C(=O)Nc4cccnc4)c3)c(O)cc2N1 [Compound 8, 3-{[(6-hydroxy-3-oxo-3,4-dihydro-2H-1,4-benzoxazin-7-yl)amino]methyl}-N-(pyridin-3-yl)benzamide]	–	–	Soluble in DMSO (Solubility in DMSO): Yes; safety profile [4]: excellent safety profiles; IC50 values against CYP19A1, potency level in words (CYP19A1): sub-micromolar inhibitory potency levels
O=C(Nc1ccccc1O)c1ccc(Oc2cccc(C(=O)Nc3ccccc3O)c2)cc1 [Compound 9, N-(2-hydroxyphenyl)-4-{3-[(2-hydroxyphenyl)carbamoyl]phenoxyl}benzamide]	–	–	Soluble in DMSO (Solubility in DMSO): Yes; inhibitory potency of CYP17A1, level in words (CYP17A1 [2]): micromolar levels; safety profile [4]: excellent safety profiles
O=C1COc2cc(NCc3cccc(C(=O)Nc4ccccc4O)c3)ccc2N1 [Compound 11, N-(2-hydroxyphenyl)-3-{[(3-oxo-3,4-dihydro-2H-1,4-benzoxazin-7-yl)amino]methyl}benzamide]	–	–	Soluble in DMSO (Solubility in DMSO): Yes; inhibition of various CYP450 isoforms (drug-drug interaction) [3]: inhibit various CYP450 isoforms; safety profile [4]: reasonably good safety profiles; IC50 values against CYP19A1, potency level in words (CYP19A1): sub-micromolar inhibitory potency levels
CNC(=O)c1ccc2cc([C@@]3(O)CCn4cncc43)ccc2c1 [TAK700]	7.550	28	–
